Experimental data: patent publication US8309550B2, “Kinase inhibitors and their use as pharmaceutical agents” (Shanghai Genomics, Inc., priority 2011, dated 2012)
pIC50: −log10 of the molar value.

How the values were obtained:
[1] = biological target: SRC (Homo sapiens, UniProt P12931); experiment: Kinase assay SRC (Table III); conditions: read-out: Target biochemical activity IC50 SRC
Experimental: (§1) Kinase assays. The compounds were tested for their ability to inhibit kinases.

[2] = biological target: Aurora B (Homo sapiens, UniProt Q96GD4); experiment: Kinase assay Aurora B (Table I); format: biochemical; conditions: Table III; read-out: Target biochemical activity IC50 Aurora B
Chain of Aurora B (Q96GD4 whole entry): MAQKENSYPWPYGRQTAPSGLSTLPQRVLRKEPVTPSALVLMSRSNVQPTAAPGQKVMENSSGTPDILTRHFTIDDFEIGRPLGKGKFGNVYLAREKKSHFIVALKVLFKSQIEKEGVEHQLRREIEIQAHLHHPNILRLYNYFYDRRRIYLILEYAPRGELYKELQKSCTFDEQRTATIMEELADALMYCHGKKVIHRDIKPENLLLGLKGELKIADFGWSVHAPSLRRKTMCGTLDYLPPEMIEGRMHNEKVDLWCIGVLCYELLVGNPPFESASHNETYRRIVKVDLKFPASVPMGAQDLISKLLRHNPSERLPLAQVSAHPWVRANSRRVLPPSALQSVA
Experimental: [The source words this procedure for another target and reports this target under the same test.] (§2) Kinase assays. The compounds from the example above were tested for their ability to inhibit kinases. Recombinant human CDK2/cyclinA (PV3267), CDK1/cyclinB (PV3292), CDK5/p35 (PV3000) and Aurora A (PV3612) were purchased from Invitrogen (Carlsbad, Calif., USA). Kinase dosage and Z′-LYTE™ substrate for each kinase assay is as follows: CDK2/cyclinA-8 ng/reaction, Ser/Thr 12 Peptide; CDK1/cyclinB-0.8 ng/reaction, Ser/Thr 12 Peptide, CDK5/p35-0.8 ng/reaction, Ser/Thr 12 Peptide, and Aurora A-16 ng/reaction, Ser/Thr 1 Peptide. All enzymatic assays were performed using Z′-LYTE™ Kinase Assay Kits and were carried out following protocols provided by Invitrogen. To prepare stock solutions, compounds were dissolved at 10 mM in 100% DMSO and stored at 4° C. in amber glass vials. Enzyme reactions were initiated by adding recombinant enzyme and Z′-LYTE™ Ser/Thr peptide substrate and ATP mixture to 384-well plates containing diluted test compounds. Kinase and corresponding peptide substrate were incubated for 1 hr at room temperature in the presence of varying amounts of test compound with reaction buffer (20 μM ATP, […] [pH 7.5], 5 mM MgCl2, 0.5 mM EGTA, 0.005% Brij-35). Development buffer was added and incubated for another one hour at room temperature. Reactions were terminated by addition of stop buffer, and fluorescence emission intensity ratio 445 nm/520 nm (excited at 400 nm) was quantified by VICTOR-3 Multilabel Reader (Perkin-Elmer, Waltham, Mass., USA). Phosphorylation was calculated from the emission ratio. IC50 was determined using Sigmoid curve-fitting software Origin 6.0 (MicroCal, LLC, Northampton, Mass., USA).

[3] = biological target: CDK7 (Homo sapiens, UniProt P50613); experiment: Kinase assay CDK7 (Table III); conditions: read-out: Target biochemical activity IC50 CDK7
Chain of CDK7 (P50613 whole entry, species assumed): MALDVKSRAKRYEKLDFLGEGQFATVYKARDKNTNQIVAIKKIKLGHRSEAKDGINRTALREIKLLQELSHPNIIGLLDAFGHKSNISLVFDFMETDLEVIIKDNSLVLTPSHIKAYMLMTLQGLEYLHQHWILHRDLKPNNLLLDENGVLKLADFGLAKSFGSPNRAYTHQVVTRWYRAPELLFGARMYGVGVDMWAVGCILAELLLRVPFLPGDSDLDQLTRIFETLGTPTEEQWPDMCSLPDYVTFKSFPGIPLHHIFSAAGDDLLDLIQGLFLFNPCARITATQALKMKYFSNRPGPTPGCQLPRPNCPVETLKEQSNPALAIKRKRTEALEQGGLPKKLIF
Chain of CDK7 (P51946 whole entry partner, species assumed): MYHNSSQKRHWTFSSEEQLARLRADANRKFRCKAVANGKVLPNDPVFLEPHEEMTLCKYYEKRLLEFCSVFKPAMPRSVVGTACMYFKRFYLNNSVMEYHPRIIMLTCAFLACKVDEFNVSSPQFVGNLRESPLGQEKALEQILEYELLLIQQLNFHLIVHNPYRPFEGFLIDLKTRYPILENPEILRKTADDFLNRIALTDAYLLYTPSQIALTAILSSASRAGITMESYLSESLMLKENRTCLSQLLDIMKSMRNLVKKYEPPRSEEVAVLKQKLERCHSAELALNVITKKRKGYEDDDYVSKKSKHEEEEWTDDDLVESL
Chain of CDK7 (P51948 whole entry partner, species assumed): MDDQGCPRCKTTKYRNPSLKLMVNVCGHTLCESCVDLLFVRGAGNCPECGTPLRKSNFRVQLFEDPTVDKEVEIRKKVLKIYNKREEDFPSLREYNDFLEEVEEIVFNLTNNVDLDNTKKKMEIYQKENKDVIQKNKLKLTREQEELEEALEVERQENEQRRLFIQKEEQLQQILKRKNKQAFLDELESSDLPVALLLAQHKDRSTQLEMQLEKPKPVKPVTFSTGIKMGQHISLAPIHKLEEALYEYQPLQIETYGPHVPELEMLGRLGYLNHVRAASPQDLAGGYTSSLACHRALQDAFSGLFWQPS
Experimental: as §1

[4] = biological target: CDK9 (Homo sapiens, UniProt P50750); experiment: CDK9 inhibitory activity, kinase assays (Table III); conditions: read-out: Target biochemical activity IC50 CDK9
Chain of CDK9 (P50750 whole entry, species assumed): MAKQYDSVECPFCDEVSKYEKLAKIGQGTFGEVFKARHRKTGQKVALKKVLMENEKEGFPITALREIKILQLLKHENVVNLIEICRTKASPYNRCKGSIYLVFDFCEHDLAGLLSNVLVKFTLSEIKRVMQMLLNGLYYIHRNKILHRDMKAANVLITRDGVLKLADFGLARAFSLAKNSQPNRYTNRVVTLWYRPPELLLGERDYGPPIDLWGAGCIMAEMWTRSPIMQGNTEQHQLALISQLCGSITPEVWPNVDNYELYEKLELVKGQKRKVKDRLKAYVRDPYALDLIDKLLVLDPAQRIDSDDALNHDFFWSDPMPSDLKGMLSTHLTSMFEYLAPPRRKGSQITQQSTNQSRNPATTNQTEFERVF
Chain of CDK9 (O60563 whole entry partner, species assumed): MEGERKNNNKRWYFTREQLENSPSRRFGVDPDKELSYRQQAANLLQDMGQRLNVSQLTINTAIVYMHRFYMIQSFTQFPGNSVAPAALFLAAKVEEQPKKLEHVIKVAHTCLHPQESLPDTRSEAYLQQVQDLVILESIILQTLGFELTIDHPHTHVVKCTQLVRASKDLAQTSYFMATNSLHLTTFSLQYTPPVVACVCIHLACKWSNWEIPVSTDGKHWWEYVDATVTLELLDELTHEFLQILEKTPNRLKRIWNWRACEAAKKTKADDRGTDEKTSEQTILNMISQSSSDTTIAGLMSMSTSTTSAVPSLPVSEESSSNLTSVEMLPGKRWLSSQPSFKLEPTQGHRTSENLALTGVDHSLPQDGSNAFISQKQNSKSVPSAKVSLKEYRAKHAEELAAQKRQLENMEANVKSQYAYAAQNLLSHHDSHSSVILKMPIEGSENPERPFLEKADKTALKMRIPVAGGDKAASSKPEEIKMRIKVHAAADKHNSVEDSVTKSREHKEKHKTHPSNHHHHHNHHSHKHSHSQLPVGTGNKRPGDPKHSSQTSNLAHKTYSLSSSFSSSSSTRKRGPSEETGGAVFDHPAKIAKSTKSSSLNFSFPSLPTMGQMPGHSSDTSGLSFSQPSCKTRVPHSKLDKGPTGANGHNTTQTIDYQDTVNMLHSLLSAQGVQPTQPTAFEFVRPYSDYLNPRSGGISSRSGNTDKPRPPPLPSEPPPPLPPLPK
Experimental: as §1

[5] = biological target: T1, CDK5/p35 (Homo sapiens, UniProt Q00535); experiment: Z'-LYTE kinase assay CDK5/p35; format: biochemical; conditions: Table III; read-out: Target biochemical activity IC50 CDK5
T1 construct: purchased Invitrogen PV3000
T1 sequence (Q00535 whole entry): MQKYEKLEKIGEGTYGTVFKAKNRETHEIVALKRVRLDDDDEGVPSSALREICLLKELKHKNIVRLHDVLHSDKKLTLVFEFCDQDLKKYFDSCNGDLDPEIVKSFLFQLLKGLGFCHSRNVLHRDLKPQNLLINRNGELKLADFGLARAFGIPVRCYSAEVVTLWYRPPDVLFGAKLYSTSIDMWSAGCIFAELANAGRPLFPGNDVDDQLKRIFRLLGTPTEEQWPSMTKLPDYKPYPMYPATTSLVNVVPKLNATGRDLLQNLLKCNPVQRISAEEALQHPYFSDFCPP
T1 sequence (Q15078 whole entry partner): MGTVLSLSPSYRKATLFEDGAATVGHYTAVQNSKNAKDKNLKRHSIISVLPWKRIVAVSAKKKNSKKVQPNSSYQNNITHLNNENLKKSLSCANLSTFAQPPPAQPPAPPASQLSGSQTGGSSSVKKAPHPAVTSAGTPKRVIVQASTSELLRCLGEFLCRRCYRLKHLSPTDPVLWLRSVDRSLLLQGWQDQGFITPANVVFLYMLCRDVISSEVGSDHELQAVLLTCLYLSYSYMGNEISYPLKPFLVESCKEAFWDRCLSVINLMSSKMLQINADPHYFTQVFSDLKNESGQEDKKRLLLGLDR
Experimental: as §2

[6] = biological target: T2, CDK1/cyclinB (Homo sapiens, UniProt P06493); experiment: Z'-LYTE kinase assay CDK1/cyclinB; format: biochemical; conditions: Table III; read-out: Target biochemical activity IC50 CDK1
T2 construct: purchased Invitrogen PV3292
T2 sequence (P06493 whole entry): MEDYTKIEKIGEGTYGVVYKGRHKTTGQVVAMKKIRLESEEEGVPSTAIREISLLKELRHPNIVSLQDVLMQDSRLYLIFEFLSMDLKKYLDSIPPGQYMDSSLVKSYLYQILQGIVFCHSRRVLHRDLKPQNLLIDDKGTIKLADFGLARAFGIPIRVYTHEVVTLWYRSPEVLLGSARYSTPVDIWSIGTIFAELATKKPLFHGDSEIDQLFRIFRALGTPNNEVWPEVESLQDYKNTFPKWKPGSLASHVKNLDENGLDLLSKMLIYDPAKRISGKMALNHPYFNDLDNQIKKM
T2 sequence (P14635 whole entry partner): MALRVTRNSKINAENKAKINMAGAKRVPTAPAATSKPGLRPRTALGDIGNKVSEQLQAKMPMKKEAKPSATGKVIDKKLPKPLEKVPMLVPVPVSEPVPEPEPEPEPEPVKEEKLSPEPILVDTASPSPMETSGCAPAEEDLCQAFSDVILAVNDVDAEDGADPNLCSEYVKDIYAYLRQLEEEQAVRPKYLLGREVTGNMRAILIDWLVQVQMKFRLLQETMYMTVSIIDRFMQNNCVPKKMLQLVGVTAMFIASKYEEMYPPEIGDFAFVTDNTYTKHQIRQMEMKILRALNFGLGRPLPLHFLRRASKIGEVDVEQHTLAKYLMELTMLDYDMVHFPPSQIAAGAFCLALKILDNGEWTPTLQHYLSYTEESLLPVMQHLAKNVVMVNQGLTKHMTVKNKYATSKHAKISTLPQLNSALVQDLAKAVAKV
Experimental: as §2

[7] = biological target: T3, TSSK1 (Homo sapiens, UniProt Q9BXA7); experiment: Kinase assay TSSK1 (Table III); conditions: read-out: Target biochemical activity IC50 TSSK1
T3 sequence (Q9BXA7 1-367): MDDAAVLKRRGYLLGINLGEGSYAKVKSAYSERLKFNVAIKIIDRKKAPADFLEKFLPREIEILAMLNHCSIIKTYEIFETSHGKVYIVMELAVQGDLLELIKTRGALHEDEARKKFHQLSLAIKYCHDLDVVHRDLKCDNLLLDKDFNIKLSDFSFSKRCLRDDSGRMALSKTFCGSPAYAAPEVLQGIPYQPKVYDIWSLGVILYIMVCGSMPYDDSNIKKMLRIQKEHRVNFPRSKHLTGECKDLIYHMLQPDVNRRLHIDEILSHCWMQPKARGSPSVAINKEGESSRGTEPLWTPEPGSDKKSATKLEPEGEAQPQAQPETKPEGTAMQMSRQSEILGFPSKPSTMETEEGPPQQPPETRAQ
Experimental: as §1

[8] = biological target: T4, CDK2/cyclinA (Homo sapiens, UniProt P24941); experiment: Z'-LYTE kinase assay CDK2/cyclinA; format: biochemical; conditions: Table III; read-out: Target biochemical activity IC50 CDK2
T4 construct: purchased Invitrogen PV3267
Experimental: as §2

[9] = biological target: T5, Aurora A (Homo sapiens, UniProt O14965); experiment: Z'-LYTE kinase assay Aurora A; format: biochemical; conditions: Table III; read-out: Target biochemical activity IC50 Aurora A
T5 construct: purchased Invitrogen PV3612
T5 sequence (O14965 1-403): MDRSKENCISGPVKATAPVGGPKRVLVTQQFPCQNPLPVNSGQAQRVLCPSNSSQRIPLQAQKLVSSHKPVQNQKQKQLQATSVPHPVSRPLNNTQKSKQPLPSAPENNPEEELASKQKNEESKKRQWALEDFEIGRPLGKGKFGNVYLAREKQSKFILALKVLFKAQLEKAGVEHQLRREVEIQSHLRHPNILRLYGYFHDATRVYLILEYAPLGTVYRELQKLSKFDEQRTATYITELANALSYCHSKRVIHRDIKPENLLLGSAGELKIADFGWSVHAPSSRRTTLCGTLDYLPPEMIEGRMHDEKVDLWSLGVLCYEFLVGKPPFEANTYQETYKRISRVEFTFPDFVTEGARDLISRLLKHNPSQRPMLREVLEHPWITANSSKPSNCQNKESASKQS
Experimental: as §2

Chain of SRC (P12931 whole entry, species assumed): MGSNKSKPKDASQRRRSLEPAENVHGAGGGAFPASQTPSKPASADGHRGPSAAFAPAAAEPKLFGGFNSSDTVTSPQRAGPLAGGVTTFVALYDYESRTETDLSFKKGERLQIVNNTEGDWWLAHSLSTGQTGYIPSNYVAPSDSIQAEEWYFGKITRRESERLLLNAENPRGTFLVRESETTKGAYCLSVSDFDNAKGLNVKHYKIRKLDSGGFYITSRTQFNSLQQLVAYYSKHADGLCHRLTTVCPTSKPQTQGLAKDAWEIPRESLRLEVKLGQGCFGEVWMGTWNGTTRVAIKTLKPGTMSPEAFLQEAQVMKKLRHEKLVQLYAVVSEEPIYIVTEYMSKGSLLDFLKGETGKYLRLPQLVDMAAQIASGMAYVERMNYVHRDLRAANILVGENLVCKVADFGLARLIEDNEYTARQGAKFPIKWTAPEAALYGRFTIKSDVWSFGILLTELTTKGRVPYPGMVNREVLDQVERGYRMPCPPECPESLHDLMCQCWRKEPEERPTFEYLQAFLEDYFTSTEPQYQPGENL

pIC50 [1]: 5.34
pIC50 [2]: < 5.00
pIC50 [3]: < 5.00
pIC50 [4]: 7.02
pIC50 [5]: 6.46
pIC50 [6]: 6.72
pIC50 [7]: 5.83
pIC50 [8]: 7.80
pIC50 [9]: 5.61
Compound: CCn1cc(-c2ccnc(Nc3ccc(O)cc3)n2)c2ccnc(Cl)c21 [SG49]
